# Measurements: patent US9355787B2, “Method of forming rigid imide material from soluble amide ester functionalized precursors” (Colorado School of Mines, priority 2013, dated 2016)
# Assay: Qualitative solubility of diester-diacid monomers in organic solvents
row,Molecule,"Solubility of monomer or dianhydride, in words"
1,"CCCCCCOC(=O)c1ccc2c3ccc(C(=O)O)c4c(C(=O)OCCCCCC)ccc(c5ccc(C(=O)O)c1c52)c43 [Monomer 2c, di-N-hexyl ester of perylene-3,4,9,10 tetracarboxylic acid]","soluble in polar aprotic solvents like NMP, and DMSO"
2,"CCCCC(CC)COC(=O)c1ccc2c3ccc(C(=O)O)c4c(C(=O)OCC(CC)CCCC)ccc(c5ccc(C(=O)O)c1c52)c43 (stereo not drawn) [Monomer 2d, di-2-ethy hexyl ester of perylene-3,4,9,10 tetracarboxylic acid]","soluble in polar aprotic solvents like NMP, and DMSO"
3,"O=C1OC(=O)c2ccc3c4ccc5c6c(ccc(c7ccc1c2c73)c64)C(=O)OC5=O [PTDA, 3,4,9,10-perylenetetracarboxylic dianhydride]",insoluble in all solvents
4,di-ethyl ester of NTDA [Monomer 1b],soluble in most of the organic solvents
5,di-hexyl ester of NTDA [Monomer 1c],soluble in most of the organic solvents
6,di-methyl ester of NTDA [Monomer 1a],soluble in most of the organic solvents
